# Measured values: EP0539170A1, “Benzodiazepine derivatives and their use as antagonists of cholecystokinin and/or gastrin receptors” (priority 1991, dated 1993)
# Structures can show the parent of a compound that is named as a salt.
# Molecular target: T1, CCK Receptor (Pancreas) (Rattus norvegicus, UniProt P30551)
# T1 construct: The whole pancreas was dissected free of fat tissue and was homogenized; from tissue; host or cells: rat pancreas membrane homogenate
# T1 sequence (P30551 1-444): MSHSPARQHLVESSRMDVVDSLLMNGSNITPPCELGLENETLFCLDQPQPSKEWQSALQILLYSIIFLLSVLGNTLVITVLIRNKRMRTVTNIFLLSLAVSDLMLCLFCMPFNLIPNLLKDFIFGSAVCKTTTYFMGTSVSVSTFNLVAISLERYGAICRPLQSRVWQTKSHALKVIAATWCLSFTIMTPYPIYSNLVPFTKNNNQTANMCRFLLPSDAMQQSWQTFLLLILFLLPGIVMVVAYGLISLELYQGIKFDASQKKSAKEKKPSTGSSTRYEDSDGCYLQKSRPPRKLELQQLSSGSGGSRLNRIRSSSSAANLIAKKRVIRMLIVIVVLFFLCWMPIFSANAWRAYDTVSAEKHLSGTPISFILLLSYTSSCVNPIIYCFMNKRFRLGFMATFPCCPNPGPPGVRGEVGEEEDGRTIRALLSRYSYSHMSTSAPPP
# Test: CCK Receptor Binding (Pancreas), inhibition of specific 125I-CCK-8 binding
# Parameters: species or system Sprague-Dawley rats
# Details: rat whole pancreas membranes; 50 pM 125I-CCK-8; 25°C for 2 hours
# Description: CCK-8 sulphated was radiolabelled with ¹²⁵I-Bolton Hunter reagent (2000 Ci/mmole). Receptor binding was performed according to Chang and Lotti (Proc. Natl. Acad. Sci. 83, 4923-4926, 1986) with minor modifications.
# Male Sprague-Dawley rats (150-200g) were sacrificed by decapitation. The whole pancreas was dissected free of fat tissue and was homogenized in 25 volumes of ice-cold 10 mM N-2-hydroxyethyl-piperazine-N′-2-ethane sulphonic acid (HEPES) buffer with 0.1% soya bean trypsin inhibitor (pH 7.4 at 25°C) with a Kinematica Polytron. The homogenates were centrifuged at 47,800 g for 10 min. Pellets were resuspended in 10 volumes of binding assay buffer (20mM (HEPES)), 1mM ethylene glycol-bis-(β-aminoethylether-N,N′-tetraacetic acid) (EGTA), 5mM MgCl₂, 150 mM NaCl, bacitracin 0.25 mg/ml, soya bean trypsin inhibitor 0.1 mg/ml, and bovine serum albumin 2 mg/ml pH 6.5 at 25°C) using a Teflon (trademark) homogenizer, 15 strokes at 500 rpm. The homogenate was further diluted in binding assay buffer to give a final concentration of 0.5 mg original wet weight/1 ml buffer. […] All assays were run in duplicate. The reaction mixtures were incubated at 25°C for 2 hours and the reaction terminated by rapid filtration (Brandell 24 well cell harvester) over Whatman GF/C filters, washing 3 x 4 mls with ice-cold 100 Mm NaCl. The radioactivity on the filters was counted with a LKB gamma counter.
# Drug displacement studies were performed with at least 10 concentrations of compounds of Formula I and the IC₅₀ values were determined by regression analysis IC₅₀ refers to the concentration of the compound required to inhibit 50% of specific binding of ¹²⁵I-CCK-8.
smiles,measurement,value
"CCc1cccc(NC(=O)NC2N=C(N3CCN(C)CC3)c3ccccc3N(CC(C)C)C2=O)c1 (single isomer, unassigned; (+)) [Example 27, (+)-N-[2,3-Dihydro-5-(4-methylpiperazin-1-yl)-1-(2-methylpropyl)-2-oxo-1H-1,4-benzodiazepin-3-yl]-N#MIN#-[3-ethylphenyl] urea]",IC50,3080 nM
"CCCN1C(=O)C(NC(=O)Nc2cccc(NC(=O)NC)c2)N=C(N2CCN(C)CC2)c2ccccc21 (single isomer, unassigned; (+)) [Example 40, (+)-N-[2,3-Dihydro-5-(4-methylpiperazin-1-yl)-2-oxo-1-propyl-1H-1,4-benzodiazepin-3-yl]-N′-[3-(methylaminocarbonylamino)phenyl] urea]",IC50,> 3000 nM
"Cc1cccc(NC(=O)NC2N=C(N3CCCCCCC3)c3ccccc3N(C)C2=O)c1 (single isomer, unassigned; (+)) [Example 52, (+)-N-[2,3-Dihydro-5-(heptamethyleneimin-1-yl)-1-methyl-2-oxo-1H-1,4-benzodiazepin-3-yl]-N′-[3-methylphenyl] urea hydrochloride]",IC50,11.7 nM
"CN1C(=O)C(NC(=O)Nc2ccc3c(c2)CCC3)N=C(N2CCCCCC2)c2ccccc21 (single isomer, unassigned; (+)) [Example 59, (+)-N-(2,3-Dihydro-5-(homopiperidin-1-yl)-1-methyl-2-oxo-1H-1,4-benzodiazepin-3-yl]-N′-[5-indanyl] urea hydrochloride]",IC50,8.92 nM
"CCc1cccc(NC(=O)NC2N=C(N3CCCCCC3)c3ccccc3N(C)C2=O)c1 (single isomer, unassigned; (+)) [Example 68, (+)-N-[2,3-Dihydro-5-(homopiperidin-1-yl)-1-methyl-2-oxo-1H-1,4-benzodiazepin-3-yl]-N′-[3-ethylphenyl] urea hydrochloride]",IC50,3.48 nM
"CCCN1C(=O)C(NC(=O)Nc2cccc(C)c2)N=C(N2CCSCC2)c2ccccc21 (single isomer, unassigned; (+)) [Example 70, (+)-N-[2,3-Dihydro-2-oxo-1-propyl-5-(thiomorpholin-4-yl)-1H-1,4-benzodiazepin-3-yl]-N′-[3-methylphenyl] urea hydrochloride]",IC50,10.5 nM
"CCCN1C(=O)C(NC(=O)Nc2cccc(C)c2)N=C(N2CCN(C)CC2)c2ccccc21 (single isomer, unassigned; (-)) [Example 24, (-)-N-(2,3-Dihydro-5-(4-methylpiperazin-1-yl)-2-oxo-1-propyl-1H-1,4-benzodiazepin-3-yl]-N′-[3-methylphenyl] urea]",IC50,> 3000 nM
"CCc1cccc(NC(=O)NC2N=C(N3CCN(C)CC3)c3ccccc3N(CC(C)C)C2=O)c1 (single isomer, unassigned; (-)) [Example 26, (-)-N-[2,3-Dihydro-5-(4-methylpiperazin-1-yl)-1-(2-methylpropyl)-2-oxo-1H-1,4-benzodiazepin-3-yl]-N#MIN#-[3-ethylphenyl] urea]",IC50,4720 nM
"Cc1cccc(NC(=O)NC2N=C(N3CCCCCC3)c3ccccc3N(C)C2=O)c1 (single isomer, unassigned; (-)) [Example 28, (-)-N-[2,3-Dihydro-5-(homopiperidin-1-yl)-1-methyl-2-oxo-1H-1,4-benzodiazepin-3-yl]-N′-[3-methylphenyl] urea]",IC50,> 3000 nM
"CCCN1C(=O)C(NC(=O)Nc2ccc3c(c2)CCC3)N=C(N2CCN(C)CC2)c2ccccc21 (single isomer, unassigned; (-)) [Example 34, (-)-N-[2,3-Dihydro-5-(4-methylpiperazin-1-yl)-2-oxo-1-propyl-1H-1,4-benzodiazepin-3-yl]-N′-[5-indanyl] urea]",IC50,> 3000 nM
"CCCN1C(=O)C(NC(=O)Nc2cccc(N(C)C)c2)N=C(N2CCN(C)CC2)c2ccccc21 (single isomer, unassigned; (-)) [Example 41, (-)-N-[2,3-Dihydro-5-(4-methylpiperazin-1-yl)-2-oxo-1-propyl-1H-1,4-benzodiazepin-3-yl]-N′-[3-(dimethylamino)phenyl] urea]",IC50,> 3000 nM
"Cc1cccc(NC(=O)NC2N=C(N3CCCCCCC3)c3ccccc3N(C)C2=O)c1 (single isomer, unassigned; (-)) [Example 51, (-)-N-[2,3-Dihydro-5-(heptamethyleneimin-1-yl)-1-methyl-2-oxo-1H-1,4-benzodiazepin-3-yl]-N′-[3-methylphenyl] urea hydrochloride]",IC50,1920 nM
"CN1C(=O)C(NC(=O)Nc2ccc3c(c2)CCC3)N=C(N2CCCCCC2)c2ccccc21 (single isomer, unassigned; (-)) [Example 58, (-)-N-[2,3-Dihydro-5-(homopiperidin-1-yl)-1-methyl-2-oxo-1H-1,4-benzodiazepin-3-yl]-N′-[5-indanyl] urea hydrochloride]",IC50,2430 nM
"CCc1cccc(NC(=O)NC2N=C(N3CCCCCC3)c3ccccc3N(C)C2=O)c1 (single isomer, unassigned; (-)) [Example 67, (-)-N-[2,3-Dihydro-5-(homopiperidin-1-yl)-1-methyl-2-oxo-1H-1,4-benzodiazepin-3-yl]-N′-[3-ethylphenyl] urea hydrochloride]",IC50,310 nM
"CCCN1C(=O)C(NC(=O)Nc2cccc(C)c2)N=C(N2CCSCC2)c2ccccc21 (single isomer, unassigned; (-)) [Example 69, (-)-N-[2,3-Dihydro-2-oxo-1-propyl-5-(thiomorpholin-4-yl)-1H-1,4-benzodiazepin-3-yl]-N′-[3-methylphenyl] urea hydrochloride]",IC50,515 nM
